# Reference: patent US9663460B2, “Sulfur derivatives as chemokine receptor modulators” (ALLERGAN, INC., priority 2010, dated 2017)
# Molecular target: CCR2 (Homo sapiens (Human), UniProt P41597)
# Assay: Calcium activity assayed on the FLIPR Tetra in HEK-Gqi5 cells stably expressing CCR2
# Assay type: cell-based
# Details: FLIPR Tetra calcium assay
# CCR2, sequence (P41597 whole entry, species assumed): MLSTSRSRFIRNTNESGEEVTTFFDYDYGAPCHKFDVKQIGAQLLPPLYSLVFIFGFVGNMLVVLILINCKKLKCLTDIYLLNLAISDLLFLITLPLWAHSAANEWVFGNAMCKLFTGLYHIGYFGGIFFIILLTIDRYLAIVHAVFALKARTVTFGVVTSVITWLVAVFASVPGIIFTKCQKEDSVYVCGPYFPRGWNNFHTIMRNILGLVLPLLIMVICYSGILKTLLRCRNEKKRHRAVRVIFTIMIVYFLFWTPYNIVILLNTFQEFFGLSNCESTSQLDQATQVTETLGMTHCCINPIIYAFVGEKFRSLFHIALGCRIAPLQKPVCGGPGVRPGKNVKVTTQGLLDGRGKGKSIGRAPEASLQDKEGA
SMILES,CCR2 % ANTAGONISM,IC50
C[S+]([O-])c1ccc(Cl)cc1NS(=O)(=O)c1ccc(Br)cc1 (stereo not shown) [4-bromo-N-[5-chloro-2-(methylsulfinyl)phenyl]benzenesulfonamide],94%,116 nM
"CN(C)C(=O)CCSc1ccc(Cl)cc1NS(=O)(=O)c1ccc(Cl)cc1F [3-[(4-chloro-2-{[(4-chloro-2-fluorophenyl)sulfonyl]amino}phenyl)thio]-N,N-dimethylpropanamide]",78%,771 nM
"O=c1cc(CSc2ccc(Cl)cc2NS(=O)(=O)c2cc3ccccc3o2)[nH]c(=O)[nH]1 [N-(5-chloro-2-{[(2,6-dioxo-1,2,3,6-tetrahydropyrimidin-4-yl)methyl]thio}phenyl)-1-benzofuran-2-sulfonamide]",98%,2370 nM
C[S+]([O-])c1ccc(Cl)cc1NS(=O)(=O)c1ccc(C(F)(F)F)c([N+](=O)[O-])c1 (stereo not shown) [N-[5-chloro-2-(methylsulfinyl)phenyl]-3-nitro-4-(trifluoromethyl)benzenesulfonamide],97%,54 nM
COc1ccc([S+]([O-])Cc2cccc([N+](=O)[O-])c2)c(NS(=O)(=O)c2cc3ccccc3o2)c1 (stereo not shown) [N-{5-methoxy-2-[(3-nitrobenzyl)sulfinyl]phenyl}-1-benzofuran-2-sulfonamide],84%,845 nM
"O=c1cc(CS(=O)(=O)c2ccc(Cl)cc2NS(=O)(=O)c2cc3ccccc3o2)[nH]c(=O)[nH]1 [N-(5-chloro-2-{[(2,6-dioxo-1,2,3,6-tetrahydropyrimidin-4-yl)methyl]sulfonyl}phenyl)-1-benzofuran-2-sulfonamide]",70%,–
Nc1cccc(CSc2ccc(Cl)cc2NS(=O)(=O)c2cc3ccccc3o2)c1 [N-{2-[(3-aminobenzypthio]-5-chlorophenyl}-1-benzofuran-2-sulfonamide],92%,42 nM
CSc1ccc(Cl)cc1NS(=O)(=O)c1cccc(Cl)c1F [3-chloro-N-[5-chloro-2-(methylthio)phenyl]-2-fluorobenzenesulfonamide],94%,1920 nM
"CC(=O)Nc1nc(C[S+]([O-])c2ccc(Cl)cc2NS(=O)(=O)c2cc3ccccc3o2)cs1 (stereo not shown) [Compound 236, N-{-4-[({2-[(1-benzofuran-2-ylsulfonyl)amino]-4-chlorophenyl}sulfinyl)methyl]-1,3-thiazol-2-yl}acetamide]",79%,2680 nM
"Cc1n[nH]c(C)c1CCSc1ccc(Cl)cc1NS(=O)(=O)c1cc2ccccc2o1 [N-(5-chloro-2-{[2-(3,5-dimethyl-1H-pyrazol-4-yl)ethyl]thio}phenyl)-1-benzofuran-2-sulfonamide]",89%,279 nM
Nc1cccc(C[S+]([O-])c2ccc(F)cc2NS(=O)(=O)c2cc3ccccc3o2)c1 (stereo not shown) [N-{2-[(3-aminobenzyl)sulfinyl]-5-fluorophenyl}-1-benzofuran-2-sulfonamide],91%,38 nM
"CN(C)C(=O)CCSc1ccc(Cl)cc1NS(=O)(=O)c1cc2ccccc2o1 [3-({2-[(1-benzofuran-2-ylsulfonyl)amino]-4-chlorophenyl}thio)-N,N-dimethylpropanamide]",100%,146 nM
"O=C1NCC(CS(=O)(=O)c2ccc(Cl)cc2NS(=O)(=O)c2cc3ccccc3o2)O1 (stereo not shown) [N-(5-chloro-2-{[(2-oxo-1,3-oxazolidin-5-yl)methyl]sulfonyl}phenyl)-1-benzofuran-2-sulfonamide]",98%,2560 nM
COc1ccc(S(=O)(=O)Cc2cccc(N)c2)c(NS(=O)(=O)c2cc3ccccc3o2)c1 [N-{2-[(3-aminobenzyl)sulfonyl]-5-methoxyphenyl}-1-benzofuran-2-sulfonamide],107%,176 nM
O=S(=O)(Cc1c[nH]cn1)c1ccc(Cl)cc1NS(=O)(=O)c1cc2ccccc2o1 [N-{5-chloro-2-[(1H-imidazol-4-ylmethyl)sulfonyl]phenyl}-1-benzofuran-2-sulfonamide],106%,81 nM
"O=c1[nH]cc(C[S+]([O-])c2ccc(Cl)cc2NS(=O)(=O)c2cc3ccccc3o2)c(=O)[nH]1 (stereo not shown) [N-(5-chloro-2-{[(2,4-dioxo-1,2,3,4-tetrahydropyrimidin-5-yl)methyl]sulfinyl}phenyl)-1-benzofuran-2-sulfonamide]",21%,3080 nM
COc1ccc([S+]([O-])Cc2cccc(N)c2)c(NS(=O)(=O)c2cc3ccccc3o2)c1 (stereo not shown) [N-{2-[(3-aminobenzyl)sulfinyl]-5-methoxyphenyl}-1-benzofuran-2-sulfonamide],100%,85 nM
CSc1ccc(Cl)cc1NS(=O)(=O)c1ccc(C(F)(F)F)c([N+](=O)[O-])c1 [N-[5-chloro-2-(methylthio)phenyl]-3-nitro-4-(trifluoromethyl)benzenesulfonamide],90%,491 nM

SMILES,CCR2 % ANTAGONISM,IC50
Nc1cccc(CS(=O)(=O)c2ccccc2NS(=O)(=O)c2cc3ccccc3o2)c1 [N-{2-[(3-aminobenzyl)sulfonyl]phenyl}-1-benzofuran-2-sulfonamide],94%,41 nM
Nc1cc(C[S+]([O-])c2ccc(Cl)cc2NS(=O)(=O)c2cc3ccccc3o2)ccn1 (stereo not shown) [N-(2-{[(2-aminopyridin-4-yl)methyl]sulfinyl}-5-chlorophenyl)-1-benzofuran-2-sulfonamide],101%,865 nM
O=S(=O)(Nc1cc(Cl)ccc1SCc1ccccn1)c1ccc(Cl)c(C(F)(F)F)c1 [4-chloro-N-{5-chloro-2-[(pyridin-2-ylmethyl)thio]phenyl}-3-(trifluoromethyl)benzenesulfonamide],79%,199 nM
Nc1ccccc1CS(=O)(=O)c1ccc(Cl)cc1NS(=O)(=O)c1cc2ccccc2o1 [N-{2-[(2-aminobenzyl)sulfonyl]-5-chlorophenyl}-1-benzofuran-2-sulfonamide],98%,129 nM
CCOC(=O)C[S+]([O-])c1ccc(Cl)cc1NS(=O)(=O)c1ccc(Cl)c(C(F)(F)F)c1 (stereo not shown) [ethyl {[4-chloro-2-({[4-chloro-3-(trifluoromethyl)phenyl]sulfonyl}amino)phenyl]sulfinyl}acetate],79%,141 nM
O=S(=O)(Cc1ncc[nH]1)c1ccc(Cl)cc1NS(=O)(=O)c1cc2ccccc2o1 [N-{5-chloro-2-[(1H-imidazol-2-ylmethyl)sulfonyl]phenyl}-1-benzofuran-2-sulfonamide],109%,1350 nM
"CN(C)C(=O)CC[S+]([O-])c1ccc(Cl)cc1NS(=O)(=O)c1ccc(F)cc1F (stereo not shown) [3-[(4-chloro-2-{[(2,4-difluorophenyl)sulfonyl]amino}phenyl)sulfinyl]-N,N-dimethylpropanamide]",93%,1480 nM
CN(C)CCCS(=O)(=O)c1ccc(Cl)cc1NS(=O)(=O)c1cc2ccccc2o1 [N-(5-chloro-2-{[3-(dimethylamino)propyl]sulfonyl}phenyl)-1-benzofuran-2-sulfonamide],96%,–
"Nc1nc(C[S+]([O-])c2ccc(Cl)cc2NS(=O)(=O)c2cc3ccccc3o2)cs1 (stereo not shown) [N-(2-{[(2-amino-1,3-thiazol-4-yl)methyl]sulfinyl}-5-chlorophenyl)-1-benzofuran-2-sulfonamide]",100%,262 nM
O=S(=O)(Nc1cc(Cl)ccc1SCc1ccccc1)c1cc2ccccc2o1 [N-[2-(benzylthio)-5-chlorophenyl]-1-benzofuran-2-sulfonamide],90%,129 nM
CCSc1ccc(Cl)cc1NS(=O)(=O)c1ccc(Cl)c(C(F)(F)F)c1 [4-chloro-N-[5-chloro-2-(ethylthio)phenyl]-3-(trifluoromethyl)benzenesulfonamide],81%,193 nM
CSc1ccc(Cl)cc1NS(=O)(=O)c1ccc(Cl)c(C(F)(F)F)c1 [4-chloro-N-[5-chloro-2-(methylthio)phenyl]-3-(trifluoromethyl)benzenesulfonamide],82%,134 nM
O=S(=O)(Nc1cc(Cl)ccc1SCCc1cn[nH]c1)c1cc2ccccc2o1 [N-(5-chloro-2-{[2-(1H-pyrazol-4-yl)ethyl]thio}phenyl)-1-benzofuran-2-sulfonamide],91%,412 nM
O=[N+]([O-])c1cc(CSc2ccc(Cl)cc2NS(=O)(=O)c2cc3ccccc3o2)n[nH]1 [N-(5-chloro-2-{[(5-nitro-1H-pyrazol-3-yl)methyl]thio}phenyl)-1-benzofuran-2-sulfonamide],91%,–
Nc1cc(CS(=O)(=O)c2ccc(Cl)cc2NS(=O)(=O)c2cc3ccccc3o2)n[nH]1 [N-(2-{[(5-amino-1H-pyrazol-3-yl)methyl]sulfonyl}-5-chlorophenyl)-1-benzofuran-2-sulfonamide],98%,1870 nM
O=S(=O)(Cc1ncccn1)c1ccc(Cl)cc1NS(=O)(=O)c1cc2ccccc2o1 [N-{5-chloro-2-[(pyrimidin-2-ylmethyl)sulfonyl]phenyl}-1-benzofuran-2-sulfonamide],104%,151 nM
"Nc1nc(CSc2ccc(Cl)cc2NS(=O)(=O)c2cc3ccccc3o2)cs1 [N-(2-{[(2-amino-1,3-thiazol-4-yl)methyl]thio}-5-chlorophenyl)-1-benzofuran-2-sulfonamide]",102%,42 nM
